Measured values from patent US20260116867A1, “PROTEOLYSIS TARGETING CHIMERAS FOR HUMAN PREGNANE X RECEPTOR AND FOR DEGRADATION OF GSPT1” (ST. JUDE CHILDREN'S RESEARCH HOSPITAL, priority 2022, published 2026).
Each block holds one compound with its values, some of them ahead of it.

Tests used:
[1] = system: SNU—C4 3xFLAG-PXR KI cell lines stably expressing HA-tagged GSPT1^G575N; assay: Cytotoxicity assay in cells overexpressing degradation-resistant GSPT1 mutant; format: cell-based, human; settings: FIG. 7B-C
Protocol: Complete information for all plasmids is included in Table 1 below. […] Lentiviruses for pCDH-GSPT1 or pCDH-GSPT1^G575N were generated in 293T cells using psPAX2 and pMD2.G packaging vectors. The packaging vectors were gifts from Dr. Didier Trono (Addgene plasmid #12259 and 12260).
(§1) The indicated cells (2.5×10^3/well in 40 μL RPMI with 10% FBS) were plated in the 384-well plates, resulting in 0.5% DMSO and the indicated concentrations of chemicals. After 72 h compound treatment, the CellTiter-Glo Luminescent Cell Viability Assay (Promega) and an EnVision microplate reader were used to assess cytotoxicity. Wells containing DMSO alone or 10 μM staurosporine served as negative and positive controls, respectively. The percent cell viability for each well was calculated using equation 1: […]

PXR [2] = biological target: T1, PXR (Homo sapiens, UniProt O75469); assay: Western blot of endogenous 3xFLAG-PXR protein in SNU—C4 3xFLAG-PXR KI cells; format: cell-based; set-up: To assess SJPYT-195 activity against endogenous PXR, CRISPR-Cas9 was used; endogenous in cells; settings: western blot, SNU—C4 3xFLAG-PXR KI cells
T1 sequence (O75469 1-434): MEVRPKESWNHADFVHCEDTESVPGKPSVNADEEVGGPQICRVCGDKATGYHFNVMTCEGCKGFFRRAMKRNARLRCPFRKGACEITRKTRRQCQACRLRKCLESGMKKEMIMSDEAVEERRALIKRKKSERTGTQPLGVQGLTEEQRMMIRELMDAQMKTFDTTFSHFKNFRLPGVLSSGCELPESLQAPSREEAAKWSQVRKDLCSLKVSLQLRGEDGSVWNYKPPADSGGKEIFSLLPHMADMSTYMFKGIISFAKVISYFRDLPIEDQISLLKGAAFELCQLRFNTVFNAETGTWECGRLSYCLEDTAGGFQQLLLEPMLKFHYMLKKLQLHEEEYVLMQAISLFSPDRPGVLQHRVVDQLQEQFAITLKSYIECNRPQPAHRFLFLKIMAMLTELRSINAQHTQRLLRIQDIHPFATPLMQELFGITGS
Protocol: The following day, DMSO or compounds were added to result in 0.5% DMSO and the indicated compound concentrations, and cells were incubated for the indicated time points. Cells were lysed and subjected to western blotting as above using antibodies against FLAG (Sigma-Aldrich, cat. #F3165, 1:2,000 dilution), GSPT1 (Abcam, cat. #ab126090, 1:4,000 dilution), and R-Actin (Cell Signaling Technology, cat. #4967, 1:2,000 dilution).

[3] = system: SNU—C4 3xFLAG-PXR KI cells; assay: Cytotoxicity assay (CellTiter-Glo, 72 h); format: cell-based, human; settings: SNU—C4 3xFLAG-PXR KI cells, 72 h, FIG. 7A; read-out: half maximal cytotoxic concentration (CC50)
Protocol: as §1

PXR [4] = biological target: T1, PXR; assay: hPXR binding assay
PXR [5] = biological target: T1, PXR; assay: cell-based hPXR antagonistic assay
PXR [6] = biological target: T1, PXR; assay: cell-based hPXR agonistic assay
HiBiT-FKBP12^F36V-PXR = biological target: T2, HiBiT-FKBP12^F36V-PXR (Homo sapiens, UniProt O75469+P62942, F37V); assay: HiBiT assay for degradation of overexpressed protein in HepG2 cells; format: cell-based; settings: FIG. 2C
T2 construct: expressed in transfected cells; host or cells: HepG2 cells (transient, Lipofectamine 3000)
Protocol: HepG2 cells (5×10^6 cells/dish) were plated in tissue culture-treated 10 cm dishes in 10 mL EMEM with 10% FBS. The next day, cells were transfected with 5 μg pcDNA3-HiBiT-FKBP^F36V-2xHA-PXR and either 5 μg pcDNA3 vector or 5 μg pcDNA3-HA-CRBN using Lipofectamine 3000 (Thermo Fisher Scientific). After 24 h, cells were trypsinized, resuspended in assay media, and plated in white tissue culture-treated 384-well plates (1.5×10^4 cells/well in 25 μL medium). […] The plates were incubated for 24 h, and the Nano-Glo HiBiT Lytic Detection System (Promega) and an EnVision microplate reader were used to measure HiBiT signal. Results are reported as fold change relative to DMSO control cells.
To establish a method for discovery of PXR degraders in the absence of a known PXR-degrading control, the degradation tag (dTAG) system was used. With this method, a protein of interest (PXR) is fused to a cytosolic prolyl isomerase, FKBP12, with Phe36 mutated to Val (FKBP12^F36V) (FIG. 2A). A PROTAC molecule, dTAG-13 (FIG. 2B), is then used to induce degradation of the fusion protein through recruitment of the CUL4-RBX1-DDB1-CRBN (CRL4^CRBN) E3 ubiquitin ligase, without affecting the cellular FKBP12 protein. An HA tag was added for western blot detection, and a HiBiT tag was fused to the N-terminus to allow high-throughput plate-based quantification of HiBiT-FKBP12^F36V-PXR protein levels (FIG. 2A). […] This was also observed when the HA tag was detected by western blot (FIG. 2D). The HiBiT detection was more sensitive to protein level changes than western blot, and, importantly, overexpression of CRBN was required to achieve dTAG-13-mediated degradation of the overexpressed HiBiT-FKBP12^F36V-PXR protein.

T2 sequence (P62942+O75469 fused P62942:F37V): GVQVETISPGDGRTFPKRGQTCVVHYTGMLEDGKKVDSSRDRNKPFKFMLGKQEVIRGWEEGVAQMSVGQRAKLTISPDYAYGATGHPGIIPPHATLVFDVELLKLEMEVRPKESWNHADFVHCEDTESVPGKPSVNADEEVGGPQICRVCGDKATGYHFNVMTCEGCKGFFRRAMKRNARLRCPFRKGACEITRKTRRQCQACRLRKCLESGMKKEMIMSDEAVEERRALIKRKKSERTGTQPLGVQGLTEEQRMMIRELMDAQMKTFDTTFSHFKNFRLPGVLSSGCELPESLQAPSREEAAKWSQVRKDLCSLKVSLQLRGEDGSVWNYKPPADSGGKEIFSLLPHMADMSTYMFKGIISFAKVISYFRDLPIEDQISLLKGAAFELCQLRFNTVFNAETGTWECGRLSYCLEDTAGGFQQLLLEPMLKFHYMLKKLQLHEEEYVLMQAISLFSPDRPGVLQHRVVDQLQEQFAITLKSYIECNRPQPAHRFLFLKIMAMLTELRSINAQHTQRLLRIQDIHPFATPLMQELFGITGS
T2 sequence (Q96SW2 whole entry partner): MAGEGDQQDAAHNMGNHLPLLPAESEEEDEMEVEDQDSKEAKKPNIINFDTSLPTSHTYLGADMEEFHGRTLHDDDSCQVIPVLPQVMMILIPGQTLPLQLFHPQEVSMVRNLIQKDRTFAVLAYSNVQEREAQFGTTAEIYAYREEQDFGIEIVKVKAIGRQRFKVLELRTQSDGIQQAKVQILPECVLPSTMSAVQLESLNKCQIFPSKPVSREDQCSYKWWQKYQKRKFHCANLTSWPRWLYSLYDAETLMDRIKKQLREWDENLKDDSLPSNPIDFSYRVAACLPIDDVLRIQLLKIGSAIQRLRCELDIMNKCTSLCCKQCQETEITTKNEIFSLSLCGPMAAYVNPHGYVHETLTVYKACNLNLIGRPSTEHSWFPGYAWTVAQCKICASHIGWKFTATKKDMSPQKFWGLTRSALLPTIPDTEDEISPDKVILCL

PXR protein level (in words) (PXR [2]): also reduced PXR protein
Compound: Cc1ccc(NC(=O)NCc2ccc3c(c2)CN(C2CCC(=O)NC2=O)C3=O)cc1Cl (centres unmarked) [CC-885, reference compound]
cytotoxicity in cells overexpressing GSPT1^G575N [1]: partially resistant
CC50 [3]: 3.3 ± 0.3 nM

Compound: COc1ccc(OC)c(-n2nnc(C(=O)Nc3cc(C(C)(C)C)ccc3OCCCCOc3cccc4c3C(=O)N(C3CCC(=O)NC3=O)C4=O)c2C)c1 (centres unmarked) [Compound M12, N-(5-(tert-butyl)-2-(4-((2-(2,6-dioxopiperidin-3-yl)-1,3-dioxoisoindolin-4-yl)oxy)butoxy)phenyl)-1-(2,5-dimethoxyphenyl)-5-methyl-1H-1,2,3-triazole-4-carboxamide]
IC50 (PXR [4]): 0.032 ± 0.002 µM
inhibition at 10 µM (PXR [4]; read-out: Binding (% inhibition at 10 μM)): 56%
inhibition at 10 µM (PXR [5]; read-out: Antagonist (% inhibition at 10 μM)): 28%
IC50 (PXR [5]; read-out: Antagonist (IC50/μM)): 0.67 ± 0.26 µM
Agonist (% activation at 10 μM) (PXR [6]; 10 μM, rifampicin at 10 μM as 100% activation, DMSO (0.3%) as 0%): (33 ± 1)%
EC50 (PXR [6]; NA = no value within concentration range tested (highest 30 μM), read-out: Agonist (EC50/μM)): 0.27 ± 0.078 µM

HiBiT signal, CRBN co-overexpressed (HiBiT-FKBP12^F36V-PXR; HepG2 overexpressing HiBiT-FKBP12^F36V-PXR and CRBN): potently reduced HiBiT signal
HiBiT signal, without CRBN co-overexpression (HiBiT-FKBP12^F36V-PXR; HepG2 overexpressing HiBiT-FKBP12^F36V-PXR): only a slight reduction in HiBiT signal
Compound: CC[C@H](C(=O)N1CCCC[C@H]1C(=O)O[C@H](CCc1ccc(OC)c(OC)c1)c1ccccc1OCC(=O)NCCCCCCOc1cccc2c1C(=O)N(C1CCC(=O)NC1=O)C2=O)c1cc(OC)c(OC)c(OC)c1 (some centres unmarked) [dTAG-13]
